Patent US20230146455A1, “TREATMENT OF INFLAMMATORY DISEASES WITH PEPTIDES AND PHARMACEUTICAL COMPOSITIONS” (Yuyu Pharma, Inc., priority 2020, published 2023)
Values joined by “and” are separate entries in the source; they are usually repeats but may differ in a detail not shown here. Equal values may be shown once. Where a SMILES comes first, the peptide text is derived from it. [ ]: non-standard residue; d: D form. Hyp = O=C(O)[C@@H]1C[C@@H](O)CN1

Tested on: human PBMCs
Test: PBMC cell counts (total, live, viability; trypan blue, Countess) with and without LPS and test articles (Example 9)
Type: cell-based
In short: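 Human PBMCs were pretreated 2 h with test articles (0.001–100 uM) or 0.5% DMSO vehicle, then given LPS at 5 ug/ml or no LPS, in triplicate. After 24 hr, total and live cells and viability were counted by 1:1 trypan blue staining on an automated counter.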

[1] = PBMC + LPS(5 ug/ml) + compound 0.001 uM, 24 hr
[2] = PBMC + LPS(5 ug/ml) + compound 0.01 uM, 24 hr
[3] = PBMC + LPS(5 ug/ml) + compound 0.1 uM, 24 hr
[4] = PBMC + LPS(5 ug/ml) + compound 1 uM, 24 hr
[5] = PBMC + LPS(5 ug/ml) + compound 10 uM, 24 hr
[6] = PBMC + LPS(5 ug/ml) + compound 100 uM, 24 hr
[7] = PBMC + LPS(5 ug/ml) + test article 0.001 uM, Mean
[8] = PBMC + LPS(5 ug/ml) + test article 0.001 uM, single replicates
[9] = PBMC + LPS(5 ug/ml) + test article 0.01 uM, Mean
[10] = PBMC + LPS(5 ug/ml) + test article 0.01 uM, single replicates
[11] = PBMC + LPS(5 ug/ml) + test article 0.1 uM, Mean
[12] = PBMC + LPS(5 ug/ml) + test article 0.1 uM, single replicates
[13] = PBMC + LPS(5 ug/ml) + test article 1 uM, Mean
[14] = PBMC + LPS(5 ug/ml) + test article 1 uM, single replicates
[15] = PBMC + LPS(5 ug/ml) + test article 10 uM, Mean
[16] = PBMC + LPS(5 ug/ml) + test article 10 uM, single replicates
[17] = PBMC + LPS(5 ug/ml) + test article 100 uM, Mean
[18] = PBMC + LPS(5 ug/ml) + test article 100 uM, single replicates
[19] = PBMC + LPS(5 ug/ml), test article 0.001 uM, Mean
[20] = PBMC + LPS(5 ug/ml), test article 0.001 uM, single replicates
[21] = PBMC + LPS(5 ug/ml), test article 0.01 uM, Mean
[22] = PBMC + LPS(5 ug/ml), test article 0.01 uM, single replicates
[23] = PBMC + LPS(5 ug/ml), test article 0.1 uM, Mean
[24] = PBMC + LPS(5 ug/ml), test article 0.1 uM, single replicates
[25] = PBMC + LPS(5 ug/ml), test article 1 uM, Mean
[26] = PBMC + LPS(5 ug/ml), test article 1 uM, single replicates
[27] = PBMC + LPS(5 ug/ml), test article 10 uM, Mean
[28] = PBMC + LPS(5 ug/ml), test article 10 uM, single replicates
[29] = PBMC + LPS(5 ug/ml), test article 100 uM, Mean
[30] = PBMC + LPS(5 ug/ml), test article 100 uM, single replicates

CC(C)C[C@H](NC(=O)[C@H](CCC(N)=O)NC(=O)CNC(=O)[C@@H]1C[C@@H](O)CN1)C(=O)NCC(=O)O [YDE-043] (H-[Hyp]GQLG-OH; N-terminus and C-terminus assumed)
Live cell [1]: 5.0 ± 0.5 10^5/ml
Total cell [1]: 6.3 ± 0.7 10^5/ml
Live cell [2]: 5.4 ± 0.6 10^5/ml
Total cell [2]: 6.9 ± 0.4 10^5/ml
Live cell [3]: 5.4 ± 0.2 10^5/ml
Total cell [3]: 6.6 ± 0.1 10^5/ml
Live cell [4]: 5.3 ± 0.3 10^5/ml
Total cell [4]: 6.8 ± 0.6 10^5/ml
Live cell [5]: 5.4 ± 0.1 10^5/ml
Total cell [5]: 6.4 ± 0.1 10^5/ml
Live cell [6]: 6.3 ± 0.1 10^5/ml
Total cell [6]: 7.6 ± 0.6 10^5/ml
Live cell [7]: 5.0 10^5/ml
Live cell (10^5/ml) [7]: 5.0 10^5/ml
Live cell, Mean [7]: 5.0 10^5/ml
Live cell (PBMC + LPS(5 ug/ml) + test article 0.001 uM, individual replicates): 4.4 10^5/ml and 6.0 10^5/ml and 4.6 10^5/ml
Live cell (PBMC + LPS(5 ug/ml) + test article 0.001 uM, individual replicates (1st, 2nd, 3rd)): 4.4 10^5/ml and 6.0 10^5/ml and 4.6 10^5/ml
Live cell [8]: 4.4 10^5/ml and 6.0 10^5/ml and 4.6 10^5/ml
Live cell (10^5/ml) [8]: 4.4 10^5/ml and 6.0 10^5/ml and 4.6 10^5/ml
Live cell (PBMC + LPS(5 ug/ml) + test article 0.001 uM, single replicates (1st, 2nd, 3rd)): 4.4 10^5/ml and 6.0 10^5/ml and 4.6 10^5/ml
Live cell [9]: 5.4 10^5/ml
Live cell (10^5/ml) [9]: 5.4 10^5/ml
Live cell, Mean [9]: 5.4 10^5/ml
Live cell (PBMC + LPS(5 ug/ml) + test article 0.01 uM, individual replicates): 4.5 10^5/ml and 6.6 10^5/ml and 5.0 10^5/ml
Live cell (PBMC + LPS(5 ug/ml) + test article 0.01 uM, individual replicates (1st, 2nd, 3rd)): 4.5 10^5/ml and 6.6 10^5/ml and 5.0 10^5/ml
Live cell [10]: 4.5 10^5/ml and 6.6 10^5/ml and 5.0 10^5/ml
Live cell (10^5/ml) [10]: 4.5 10^5/ml and 6.6 10^5/ml and 5.0 10^5/ml
Live cell (PBMC + LPS(5 ug/ml) + test article 0.01 uM, single replicates (1st, 2nd, 3rd)): 4.5 10^5/ml and 6.6 10^5/ml and 5.0 10^5/ml
Live cell [11]: 5.4 10^5/ml
Live cell (10^5/ml) [11]: 5.4 10^5/ml
Live cell, Mean [11]: 5.4 10^5/ml
Live cell (PBMC + LPS(5 ug/ml) + test article 0.1 uM, individual replicates): 5.0 10^5/ml and 5.6 10^5/ml (2×)
Live cell (PBMC + LPS(5 ug/ml) + test article 0.1 uM, individual replicates (1st, 2nd, 3rd)): 5.0 10^5/ml and 5.6 10^5/ml (2×)
Live cell [12]: 5.0 10^5/ml and 5.6 10^5/ml (2×)
Live cell (10^5/ml) [12]: 5.0 10^5/ml and 5.6 10^5/ml (2×)
Live cell (PBMC + LPS(5 ug/ml) + test article 0.1 uM, single replicates (1st, 2nd, 3rd)): 5.0 10^5/ml and 5.6 10^5/ml (2×)
Live cell [13]: 5.3 10^5/ml
Live cell (10^5/ml) [13]: 5.3 10^5/ml
Live cell, Mean [13]: 5.3 10^5/ml
Live cell (PBMC + LPS(5 ug/ml) + test article 1 uM, individual replicates): 5.8 10^5/ml and 4.8 10^5/ml and 5.3 10^5/ml
Live cell (PBMC + LPS(5 ug/ml) + test article 1 uM, individual replicates (1st, 2nd, 3rd)): 5.8 10^5/ml and 4.8 10^5/ml and 5.3 10^5/ml
Live cell [14]: 5.8 10^5/ml and 4.8 10^5/ml and 5.3 10^5/ml
Live cell (10^5/ml) [14]: 5.8 10^5/ml and 4.8 10^5/ml and 5.3 10^5/ml
Live cell (PBMC + LPS(5 ug/ml) + test article 1 uM, single replicates (1st, 2nd, 3rd)): 5.8 10^5/ml and 4.8 10^5/ml and 5.3 10^5/ml
Live cell [15]: 5.4 10^5/ml
Live cell (10^5/ml) [15]: 5.4 10^5/ml
Live cell, Mean [15]: 5.4 10^5/ml
Live cell (PBMC + LPS(5 ug/ml) + test article 10 uM, individual replicates): 5.2 10^5/ml and 5.4 10^5/ml and 5.6 10^5/ml
Live cell (PBMC + LPS(5 ug/ml) + test article 10 uM, individual replicates (1st, 2nd, 3rd)): 5.2 10^5/ml and 5.4 10^5/ml and 5.6 10^5/ml
Live cell [16]: 5.2 10^5/ml and 5.4 10^5/ml and 5.6 10^5/ml
Live cell (10^5/ml) [16]: 5.2 10^5/ml and 5.4 10^5/ml and 5.6 10^5/ml
Live cell (PBMC + LPS(5 ug/ml) + test article 10 uM, single replicates (1st, 2nd, 3rd)): 5.2 10^5/ml and 5.4 10^5/ml and 5.6 10^5/ml
Live cell [17]: 6.3 10^5/ml
Live cell (10^5/ml) [17]: 6.3 10^5/ml
Live cell, Mean [17]: 6.3 10^5/ml
Live cell (PBMC + LPS(5 ug/ml) + test article 100 uM, individual replicates): 6.2 10^5/ml and 6.4 10^5/ml
Live cell (PBMC + LPS(5 ug/ml) + test article 100 uM, individual replicates (1st, 2nd, 3rd)): 6.2 10^5/ml and 6.4 10^5/ml
Live cell [18]: 6.2 10^5/ml and 6.4 10^5/ml
Live cell (10^5/ml) [18]: 6.2 10^5/ml and 6.4 10^5/ml
Live cell (PBMC + LPS(5 ug/ml) + test article 100 uM, single replicates (1st, 2nd, 3rd)): 6.2 10^5/ml and 6.4 10^5/ml
Live cell (PBMC + LPS(5 ug/ml), 0.001 uM, Mean): 5.0 10^5/ml
Live cell (PBMC + LPS(5 ug/ml), 0.001 uM, single replicates): 4.4 10^5/ml and 6.0 10^5/ml and 4.6 10^5/ml
Live cell (PBMC + LPS(5 ug/ml), 0.01 uM, Mean): 5.4 10^5/ml
Live cell (PBMC + LPS(5 ug/ml), 0.01 uM, single replicates): 4.5 10^5/ml and 6.6 10^5/ml and 5.0 10^5/ml
Live cell (PBMC + LPS(5 ug/ml), 0.1 uM, Mean): 5.4 10^5/ml
Live cell (PBMC + LPS(5 ug/ml), 0.1 uM, single replicates): 5.0 10^5/ml and 5.6 10^5/ml (2×)
Live cell (PBMC + LPS(5 ug/ml), 1 uM, Mean): 5.3 10^5/ml
Live cell (PBMC + LPS(5 ug/ml), 1 uM, single replicates): 5.8 10^5/ml and 4.8 10^5/ml and 5.3 10^5/ml
Live cell (PBMC + LPS(5 ug/ml), 10 uM, Mean): 5.4 10^5/ml
Live cell (PBMC + LPS(5 ug/ml), 10 uM, single replicates): 5.2 10^5/ml and 5.4 10^5/ml and 5.6 10^5/ml
Live cell (PBMC + LPS(5 ug/ml), 100 uM, Mean): 6.3 10^5/ml
Live cell (PBMC + LPS(5 ug/ml), 100 uM, single replicates): 6.2 10^5/ml and 6.4 10^5/ml
Live cell [19]: 5.0 10^5/ml
Total cell count [19]: 6.3 10^5/ml
Live cell [20]: 4.4 10^5/ml and 6.0 10^5/ml and 4.6 10^5/ml
Total cell count [20]: 5.6 10^5/ml (2×) and 7.8 10^5/ml
Viability [20]: 79.0% and 77.0% and 82.0%
Live cell [21]: 5.4 10^5/ml
Total cell count [21]: 6.9 10^5/ml
Live cell [22]: 4.5 10^5/ml and 6.6 10^5/ml and 5.0 10^5/ml
Total cell count [22]: 6.2 10^5/ml and 7.3 10^5/ml and 7.2 10^5/ml
Live cell [23]: 5.4 10^5/ml
Total cell count [23]: 6.6 10^5/ml
Live cell [24]: 5.0 10^5/ml and 5.6 10^5/ml
Total cell count [24]: 6.8 10^5/ml and 6.4 10^5/ml and 6.5 10^5/ml
Viability [24]: 74.0% and 87.0% and 85.0%
Live cell [25]: 5.3 10^5/ml
Total cell count [25]: 6.8 10^5/ml
Live cell [26]: 5.8 10^5/ml and 4.8 10^5/ml and 5.3 10^5/ml
Total cell count [26]: 6.9 10^5/ml and 5.7 10^5/ml and 7.8 10^5/ml
Viability [26]: 83.0% (2×) and 68.0%
Live cell [27]: 5.4 10^5/ml
Total cell count [27]: 6.4 10^5/ml
Live cell [28]: 5.2 10^5/ml and 5.4 10^5/ml and 5.6 10^5/ml
Total cell count [28]: 6.4 10^5/ml and 6.7 10^5/ml and 6.2 10^5/ml
Viability [28]: 80.0% (2×) and 90.0%
Live cell [29]: 6.3 10^5/ml
Total cell count [29]: 7.6 10^5/ml
Live cell [30]: 6.2 10^5/ml and 6.4 10^5/ml
Total cell count [30]: 7.0 10^5/ml and 8.1 10^5/ml
Viability [30]: 89.0% and 80.0%
which treatments consistently affected the total and live number of PBMCs or the percent viability (in words) (up to 100 μM, 24-hour treatment): none of
